Common to all, as to format: cell-based, murine
Assay [1] relates to PGE2 production, RAW264.7. Nature of the assay: Inhibition of PGE2 production in LPS-stimulated RAW264.7 macrophages (EIA). As to conditions: single compounds, RAW264.7, 1 μg/ml LPS, 24 hours. The procedure: (§1) Pure compounds were assayed in vitro in cellular systems. The inhibition of the synthesis of pro-inflammatory prostaglandins (PG) and of nitric oxide by the extracts or compounds was measured. PGE2 plays a critical role in the inflammation process, while nitric oxide (NO) is a hallmark of inflammation in various chronic inflammatory diseases including various forms of arthritis, gastrointestinal diseases and metabolic syndrome X.
(§2) The effects of extracts or compounds on the inflammatory response were tested in cellular assays using a murine macrophage indicator cell line, RAW264.7. The cells were purchased from ATCC (Manassas, Va., USA) and cultured in DMEM containing streptomycin/penicillin, non-essential amino acids and 10% fetal calf serum (FCS). In order to test a large range of concentration of compounds, cells (˜50′000/well) were seeded into flat-bottomed microtiter plates and cultured for one day. Cells were then starved in complete medium containing 0.25% FCS (D-025). After overnight culture, medium was removed and replaced by 100 μL of D-025 containing the test compounds at twice the final concentration. Subsequently, 100 μL of D-025 containing 2 μg/ml LPS was added (i.e. final LPS concentration of 1 μg/ml) and the cells cultured for 24 hours.
(§3) Compounds were usually tested in a concentration range from 0.2 to 50 μM in two-fold dilution steps. Extracts were tested in a range from 0.2-50 mg/L. All treatments were done in duplicates and several experimental series were done for each treatment. Concentrations of nitrite, which was rapidly formed from nitric oxide released by cells, were determined by the Griess reaction using sodium nitrite as standard. Briefly, 50 μl of supernatant was mixed with Griess reagent 1 (25 μL) and Griess reagent 2 (25 μL), centrifuged and the optical density at 540 nm determined. PGE2 secreted into the cell culture medium was determined by EIA obtained from Cayman Chemicals (Ann Harbor, Wis., USA) and used according to the manufacturer's instructions. All determinations were done in duplicates and at various dilutions of the culture supernatant. IC50 values were calculated using a […] least-square fitting equation [y=A+((B−A)/(1+((C−x)^D))] for best-fit curves (Excel fit software program).

The subject of assay [2] is nitric oxide (NO) production, RAW264.7. The experiment in a line: Inhibition of nitric oxide production in LPS-stimulated RAW264.7 macrophages (Griess reaction). The conditions noted are these: single compounds, RAW264.7, 1 μg/ml LPS, 24 hours. How it is done:
as §1, §2, §3
A general note: Nitrite, measured by Griess reagent, commonly stands in for NO production.

The test system of the next assay is IL-1 alpha mRNA. The experiment in a line: Expression of inflammatory genes in stimulated RAW 264.7 cells, quantitative RT-PCR: IL-1 alpha. The conditions noted are these: 25 μM/L Amorfrutin A; RAW 264.7, 4 hours. How it is done:
(§4) The effect of the compounds has also been evaluated on the level of the expression of genes that are involved in the inflammatory response. These comprise genes of the prostaglandin synthesis pathway, cytokines and chemokines or inducible nitric oxide synthase (iNOS). RAW 264.7 cells were stimulated in the presence of different concentrations of substances. After 4 hours, RNA was extracted and the expression of genes determined by quantitative RT-PCR as described (Richard, N., Porath, D., Radspieler, A. and Schwager, J. Effects of resveratrol, piceatannol, tri-acetoxystilbene, and genistein on the inflammatory response of human peripheral blood leukocytes. Mol Nutr Food Res 2005. 49: 431-442). […] Collectively, the results reveal significant effects of the compounds on the expression of distinct genes involved in the inflammatory response.

Assay [3] relates to matrix metalloproteinase 9 (MMP-9) mRNA. The experiment in a line: Expression of inflammatory genes in stimulated RAW 264.7 cells, quantitative RT-PCR: MMP-9. The conditions noted are these: RAW 264.7, 4 hours. The procedure: as §4
The test system of assay [4] is inducible nitric oxide synthase (iNOS) mRNA. Nature of the assay: Expression of inflammatory genes in stimulated RAW 264.7 cells, quantitative RT-PCR: iNOS. As to conditions: RAW 264.7, 4 hours. The procedure: as §4
For assay [5], the system named is interleukin-10 (IL-10) mRNA. Nature of the assay: Expression of inflammatory genes in stimulated RAW 264.7 cells, quantitative RT-PCR: IL-10. The conditions noted are these: RAW 264.7, 4 hours. The procedure: as §4

Structures are written as SMILES. Bounds are passed on as bounds.

`CCCCCc1cc(OC)c(CC=C(C)C)c(O)c1C(=O)O` [2-hydroxy-4-methoxy-3-(3-methyl-2-butenyl)-6-pentyl-benzoic acid]: the results for the IC50 in assay [1] (Mus musculus) and in assay [2] (Mus musculus) were more than 50 µM and 10.9 ± 1.2 µM, respectively.
For `CCCCCc1cc(OC)c(C/C=C(\C)CCC=C(C)C)c(O)c1C(=O)O` [Cannabigerolic acid monomethyl ether], the IC50 in assay [1] was found to be 17.9 ± 11.6 µM; in assay [2] it was 31.3 ± 2.5 µM.
With `C=C(C)C(O)Cc1c(OC)cc(CCc2ccccc2)c(C(=O)O)c1O` (stereo not shown) [2-hydroxy-4-methoxy-3-(2-hydroxy-3-methyl-3-butenyl)-6-(2-phenylethyl)-benzoic acid], the IC50 came to 40.7 ± 11.8 µM in assay [1] (Mus musculus) and 14.6 ± 0.3 µM in assay [2] (Mus musculus).
On to `C=C(C)C(O)Cc1c(OC)cc(CCCCC)c(C(=O)O)c1O` (stereo not shown) [2-hydroxy-4-methoxy-3-(2-hydroxy-3-methyl-3-butenyl)-6-pentyl-benzoic acid], for which the IC50 in assay [1] (Mus musculus) came to 18.9 ± 1.6 µM; in assay [2] (Mus musculus), 22.1 ± 1.6 µM.
In the case of `COc1cc(CCc2ccccc2)c(C(=O)O)c(O)c1C/C=C(\C)CCC=C(C)C` [Amorfrutin B (II), Amorfrutin B], the IC50 was more than 100 µM in assay [1] and 22.8 ± 4.1 µM in assay [2].
With `COc1cc(CCc2ccccc2)c(C(=O)O)c(O)c1CC=C(C)C` [Amorfrutin A (III), Amorfrutin A], the “% expression of IL-1 alpha mRNA relative to cells stimulated with LPS only (=100%)” value in the assay on IL-1 alpha mRNA is recorded as 94%. For the same molecule, the “% expression of MMP-9 mRNA relative to cells stimulated with LPS only (=100%)” value in assay [3] (25 μM/L Amorfrutin A) worked out at 69%. Further, in assay [3] (RT-PCR), the “Effect on MMP-9 gene expression (in words)” value is “significantly reduced”. For the same molecule, the IC50 in assay [1] is 74.1 ± 12.1 µM; in assay [2] it was 7.1 ± 0.1 µM. The “% expression of iNOS mRNA relative to cells stimulated with LPS only (=100%)” value in assay [4] (25 μM/L Amorfrutin A) came out at 52%. Moreover, the “Effect on iNOS gene expression (in words)” value in assay [4] (RT-PCR) was “significantly reduced”. Also, the “% expression of IL-10 mRNA relative to cells stimulated with LPS only (=100%)” value in assay [5] (25 μM/L Amorfrutin A) came out at 22%. Moreover, the “Effect on IL-10 gene expression (in words)” value in assay [5] (RT-PCR) is given as “significantly reduced”.

By IC50 is commonly meant the concentration needed to halve the response being measured.
